The test system of one assay is Molm-13 cells. As to the kind of experiment: Molm-13 cell viability (CellTiter-Glo). Type of assay: cell-based. Conditions: Homo sapiens, MOLM-13, read-out: % Inhibition (MOLM-13 Cell Viability); for cytotoxicity at 10 µM: compound concentration 10 μM; for cytotoxicity at 0.3 µM: compound concentration 0.3 μM. A digest of the protocol:
(§1)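 Molm-13 (RPMI-1640, 10% FBS) and H1048 (DMEM:F12, 5% FBS with supplements) plated at 20,000 cells/well, treated with compound or 0.1% DMSO for 3 days at 37° C., 5% CO2. Viability read by CellTiter-Glo luminescence after 10 min.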

Another assay deals with IL-2. As to the kind of experiment: anti-CD3-induced IL-2 secretion in PBMCs. Conditions: Homo sapiens, PBMC, anti-CD3 stimulated PBMCs, 24 h, DMSO = 1.0, read-out: Fold Change IL-2; for fold induction at 1 µM: compound concentration 1 μM. Type of assay: cell-based. The method, boiled down: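 PBMCs stimulated on plates coated with 1 ug/mL anti-CD3 (OKT3), with compound or DMSO, 24 h. Supernatant IL-2 measured by Mesoscale; activity expressed as fold difference from DMSO-stimulated control.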

The test system of the next assay is H1048 cells. As to the kind of experiment: H1048 cell viability (CellTiter-Glo). Type of assay: cell-based. Conditions: Homo sapiens, NCI-H1048, 72 h, H1048, 3 days, DMSO = 100.00; for viability at 1 µM: 1 μM compound concentration; for viability at 10 µM: 10 μM compound concentration. The method, boiled down: as §1
In the next assay the test system is MDA-MB-231 cells. In words: MDA-MB-231 cell viability (CellTiter-Glo). It counts as cell-based. The conditions noted are these: Homo sapiens, 72 h, 3 days, DMSO = 100.00; for viability at 1 µM: 1 μM compound concentration; for viability at 10 µM: 10 μM compound concentration. A digest of the protocol:
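Cells in DMEM with 10% FBS, seeded at 10,000 per well, exposed to compound (0.1% DMSO control) for 3 days at 37° C, 5% CO2. Viability read by CellTiter-Glo luminescence after 10 min shaking.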

In a further assay the test system is IL-1β. As to the kind of experiment: IL-1β expression in LPS stimulated PBMCs (Meso Scale). Conditions: Homo sapiens, PBMC; for inhibition at 1 µM: compound concentration 1 μM. It counts as cell-based, human. A digest of the protocol:
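Human PBMCs (200,000 cells/well in RPMI-1640/10% FBS) were pretreated with compound for 1 h, then stimulated with 100 ng/mL LPS for 18-24 h. IL-1β in supernatant was measured by Meso Scale assay. Activity is expressed as percentage of LPS-induced level, with DMSO-treated wells as negative control.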

In the next assay the test system is IL-6. As to the kind of experiment: IL-6 expression in LPS stimulated PBMCs (Meso Scale). Conditions: Homo sapiens, PBMC, LPS-stimulated PBMCs; for inhibition at 1 µM: compound concentration 1 μM. It counts as cell-based, human. The method, boiled down: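 Thawed human PBMCs at 200,000 cells/well in RPMI-1640/10% FBS were pretreated with compound or DMSO for 1 h, then stimulated with 100 ng/mL LPS for 18–24 h. Supernatant IL-6 was measured by Meso Scale assay and expressed as % of LPS-induced activity.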

The test system of the next assay is TNF-α. As to the kind of experiment: TNF-α expression in LPS stimulated PBMCs (Meso Scale). Conditions: Homo sapiens, PBMC; for inhibition at 1 µM: compound concentration 1 μM. Type of assay: cell-based, human. The method, boiled down:
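Thawed primary human PBMCs, 200,000 cells/well in RPMI-1640/10% FBS, pretreated with compound 1 h, then stimulated with 100 ng/mL LPS for 18-24 h. Supernatant TNF-α measured by Meso Scale assay; activity expressed as percentage of LPS-induced level, DMSO as negative control.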

Another assay deals with T1, GSPT1 (Homo sapiens, UniProt P15170).
T1 construct: Whole cell extracts were prepared using RIPA buffer according to manufacturer's protocol (Pierce); endogenous in cells
T1 sequence (P15170 whole entry): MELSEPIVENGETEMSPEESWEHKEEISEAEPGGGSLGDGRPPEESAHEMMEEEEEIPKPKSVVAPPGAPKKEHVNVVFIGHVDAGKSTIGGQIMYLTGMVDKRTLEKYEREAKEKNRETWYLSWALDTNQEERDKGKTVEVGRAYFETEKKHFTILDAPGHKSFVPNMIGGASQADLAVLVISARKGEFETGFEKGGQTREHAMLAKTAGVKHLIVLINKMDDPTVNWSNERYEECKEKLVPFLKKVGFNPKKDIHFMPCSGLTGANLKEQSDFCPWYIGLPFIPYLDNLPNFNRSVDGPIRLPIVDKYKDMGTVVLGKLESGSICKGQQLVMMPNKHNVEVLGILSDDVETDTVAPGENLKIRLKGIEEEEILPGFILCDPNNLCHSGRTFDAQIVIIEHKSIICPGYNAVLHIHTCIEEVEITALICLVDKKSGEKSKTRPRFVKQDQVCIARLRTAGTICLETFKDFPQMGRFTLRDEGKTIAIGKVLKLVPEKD
T1 sequence (Q96SW2 whole entry, further chain): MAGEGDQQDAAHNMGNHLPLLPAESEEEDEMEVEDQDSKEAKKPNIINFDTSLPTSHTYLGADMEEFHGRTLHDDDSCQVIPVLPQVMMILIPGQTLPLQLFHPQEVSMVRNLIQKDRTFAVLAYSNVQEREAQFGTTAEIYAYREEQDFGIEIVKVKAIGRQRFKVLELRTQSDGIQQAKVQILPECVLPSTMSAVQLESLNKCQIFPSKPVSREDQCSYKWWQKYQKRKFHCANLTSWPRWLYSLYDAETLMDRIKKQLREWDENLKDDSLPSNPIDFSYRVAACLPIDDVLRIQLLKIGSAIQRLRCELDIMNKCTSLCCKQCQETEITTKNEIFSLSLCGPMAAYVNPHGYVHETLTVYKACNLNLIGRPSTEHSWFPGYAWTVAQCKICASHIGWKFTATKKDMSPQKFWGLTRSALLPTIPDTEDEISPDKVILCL
T1 sequence (Q16531 whole entry partner): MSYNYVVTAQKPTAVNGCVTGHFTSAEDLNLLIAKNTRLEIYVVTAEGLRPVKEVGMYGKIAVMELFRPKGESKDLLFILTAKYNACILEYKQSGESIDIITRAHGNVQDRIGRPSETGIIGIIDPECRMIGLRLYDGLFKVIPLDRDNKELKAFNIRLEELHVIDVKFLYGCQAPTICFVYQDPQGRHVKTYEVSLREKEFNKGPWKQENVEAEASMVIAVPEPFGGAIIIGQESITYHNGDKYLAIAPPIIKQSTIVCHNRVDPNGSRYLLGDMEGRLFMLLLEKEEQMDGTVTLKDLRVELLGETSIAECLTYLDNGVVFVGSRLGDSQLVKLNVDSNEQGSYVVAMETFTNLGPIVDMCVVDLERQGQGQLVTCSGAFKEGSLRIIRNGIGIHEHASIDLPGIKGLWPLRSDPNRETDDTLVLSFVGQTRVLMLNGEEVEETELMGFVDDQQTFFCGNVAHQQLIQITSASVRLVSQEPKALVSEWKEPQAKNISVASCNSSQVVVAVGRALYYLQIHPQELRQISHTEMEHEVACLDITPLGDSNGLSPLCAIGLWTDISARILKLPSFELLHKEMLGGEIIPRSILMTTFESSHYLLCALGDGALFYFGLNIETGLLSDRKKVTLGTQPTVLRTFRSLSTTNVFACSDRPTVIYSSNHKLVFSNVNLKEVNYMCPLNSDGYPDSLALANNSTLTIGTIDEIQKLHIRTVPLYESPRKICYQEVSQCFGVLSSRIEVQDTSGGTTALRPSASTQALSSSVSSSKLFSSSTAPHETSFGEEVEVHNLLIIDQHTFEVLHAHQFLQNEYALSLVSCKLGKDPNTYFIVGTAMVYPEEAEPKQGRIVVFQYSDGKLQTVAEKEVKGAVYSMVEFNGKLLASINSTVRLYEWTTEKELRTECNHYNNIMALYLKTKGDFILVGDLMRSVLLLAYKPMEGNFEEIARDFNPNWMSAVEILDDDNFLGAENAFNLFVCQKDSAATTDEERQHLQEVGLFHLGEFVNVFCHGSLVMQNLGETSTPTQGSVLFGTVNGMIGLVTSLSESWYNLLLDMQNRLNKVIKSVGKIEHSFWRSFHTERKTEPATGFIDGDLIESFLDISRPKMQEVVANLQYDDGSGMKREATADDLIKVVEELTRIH
As to the kind of experiment: GSPT1 protein levels by Western Blot analysis. It counts as cell-based. Conditions: DMSO = 100.00; for remaining activity at 0.1 µM: 100 nM compound concentration; for remaining activity at 1 µM: 1 μM compound concentration. A digest of the protocol:
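Molm-13 AML cells in RPMI 1640 with 10% FBS, about 10^6 cells/mL, treated with compound or DMSO for 6-8 h. RIPA whole-cell lysates resolved by SDS-PAGE, blotted and probed for GSPT1 with β-actin reference; IRDye secondary antibodies quantified by LI-COR Odyssey infrared imaging.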

Consider `Cc1ccc(CNC(=O)NCc2scc3c2CN(C2CCC(=O)NC2=O)C3=O)cc1Cl` (stereo not drawn) [Compound 33, 1-(3-Chloro-4-methylbenzyl)-3-((5-(2,6-dioxopiperidin-3-yl)-4-oxo-5,6-dihydro-4H-thieno[3,4-c]pyrrol-1-yl)methyl)urea], for which, in the assay on Molm-13 cells (compound concentration 0.003 μM), the cytotoxicity at 0.003 µM worked out at 50%. Also, the fold induction at 0.1 µM with IL-2 (compound concentration 0.1 μM) was determined as 0.3. The viability at 1 µM came out at 8.76% in the assay on H1048 cells and 21.7% in the assay with MDA-MB-231 cells. For the same molecule, the values for the viability at 10 µM in the assay with H1048 cells and with MDA-MB-231 cells were 8.21% and 19.8%, respectively. The inhibition at 0.1 µM in the assay with IL-1β (compound concentration 0.1 μM) was determined as 95%; in the assay with IL-6 (compound concentration 0.1 μM), 99%; in the assay on TNF-α (compound concentration 0.1 μM) it was 95%. In addition, the remaining activity at 0.1 µM on GSPT1 worked out at 5.9%. Moreover, on GSPT1, the remaining activity at 1 µM amounted to 5.5%.

As to `Cc1ccc(CNC(=O)NCc2scc3c2CN([C@H]2CCCC(=O)NC2=O)C3=O)cc1Cl` [Compound 34, (S)-1-(3-Chloro-4-methylbenzyl)-3-((5-(2,7-dioxoazepan-3-yl)-4-oxo-5,6-dihydro-4H-thieno[3,4-c]pyrrol-1-yl)methyl)urea], the cytotoxicity at 10 µM in the assay with Molm-13 cells was 99%. Besides, the fold induction at 1 µM in the assay with IL-2 came out at 1.6. For the same molecule, the viability at 1 µM with H1048 cells was determined as 12.9%; with MDA-MB-231 cells, 102%. Also, the viability at 10 µM in the assay on H1048 cells was determined as 8.34%; in the assay with MDA-MB-231 cells it was 44.4%. Besides, the inhibition at 1 µM in the assay with IL-1β is 70%; in the assay on IL-6 it was 39%; in the assay on TNF-α, 69%. The remaining activity at 0.1 µM at GSPT1 was 84.9%. Further, the remaining activity at 1 µM on GSPT1 was 37.5%.

Consider `Cc1ccc(NC(=O)NCc2cc3c(s2)C(=O)N([C@H]2CCCC(=O)NC2=O)C3)cc1Cl` [Compound 35, (S)-1-(3-Chloro-4-methylphenyl)-3-((5-(2,7-dioxoazepan-3-yl)-6-oxo-5,6-dihydro-4H-thieno[2,3-c]pyrrol-2-yl)methyl)urea], for which the cytotoxicity at 10 µM in the assay on Molm-13 cells turned out to be 93%. The fold induction at 1 µM in the assay on IL-2 was 1.4. Besides, the viability at 1 µM was 15.5% in the assay on H1048 cells and 99% with MDA-MB-231 cells. For the same molecule, the viability at 10 µM turned out to be 12.4% with H1048 cells and 64.8% in the assay on MDA-MB-231 cells. The figures for the inhibition at 1 µM in the assay on IL-1β, in the assay with IL-6 and in the assay with TNF-α were 44%, 16% and 39%, respectively. On GSPT1, the remaining activity at 0.1 µM amounted to 112%. Further, the remaining activity at 1 µM at GSPT1 was determined as 44.5%.

For the molecule `Cc1cc(C)c(NC(=O)NCc2scc3c2CN([C@H]2CCCC(=O)NC2=O)C3=O)cc1Cl` [Compound 36, (S)-1-(5-Chloro-2,4-dimethylphenyl)-3-((5-(2,7-dioxoazepan-3-yl)-4-oxo-5,6-dihydro-4H-thieno[3,4-c]pyrrol-1-yl)methyl)urea], the cytotoxicity at 10 µM in the assay on Molm-13 cells was 100%. The fold induction at 1 µM in the assay on IL-2 was found to be 0.8. Moreover, the figures for the viability at 1 µM with H1048 cells and in the assay with MDA-MB-231 cells were 10.6% and 101%, respectively. Moreover, the viability at 10 µM with H1048 cells amounted to 7.51%; with MDA-MB-231 cells it was 53.4%. For the same molecule, the inhibition at 1 µM in the assay with IL-1β worked out at 40%; with IL-6, 38%; in the assay on TNF-α, 33%. Also, the remaining activity at 0.1 µM at GSPT1 was 92.9%. The remaining activity at 1 µM on GSPT1 was 32.6%.

Take `Cc1ccc(NC(=O)NCc2scc3c2CN([C@H]2CCCC(=O)NC2=O)C3=O)cn1` [Compound 37, (S)-1-((5-(2,7-Dioxoazepan-3-yl)-4-oxo-5,6-dihydro-4H-thieno[3,4-c]pyrrol-1-yl)methyl)-3-(6-methylpyridin-3-yl)urea]: in the assay on Molm-13 cells, the cytotoxicity at 10 µM was determined as 51%. In the assay on IL-2, the fold induction at 1 µM amounted to 1.1. In addition, the viability at 1 µM in the assay on H1048 cells is 55%; in the assay with MDA-MB-231 cells, 106%. The values for the viability at 10 µM in the assay on H1048 cells and in the assay with MDA-MB-231 cells were 10.5% and 97.7%, respectively. The inhibition at 1 µM in the assay with IL-1β was 4%; in the assay with IL-6, 3%; in the assay with TNF-α, 6%. Besides, the remaining activity at 0.1 µM at GSPT1 amounted to 124%. For the same molecule, the remaining activity at 1 µM at GSPT1 is 154%.

With `Cc1ccc(NC(=O)NCc2scc3c2CN([C@H]2CCCC(=O)NC2=O)C3=O)cc1C(F)(F)F` [Compound 38, (S)-1-((5-(2,7-Dioxoazepan-3-yl)-4-oxo-5,6-dihydro-4H-thieno[3,4-c]pyrrol-1-yl)methyl)-3-(4-methyl-3-(trifluoromethyl)phenyl)urea], the cytotoxicity at 0.3 µM in the assay with Molm-13 cells was 50%. Further, the fold induction at 1 µM in the assay on IL-2 stood at 0.6. The results for the viability at 1 µM with H1048 cells and with MDA-MB-231 cells were 8.35% and 54.7%, respectively. The viability at 10 µM with H1048 cells was 7.89%; in the assay on MDA-MB-231 cells, 27.6%. Moreover, the values for the inhibition at 1 µM in the assay with IL-1β, in the assay on IL-6 and in the assay with TNF-α were 84%, 94% and 87%, respectively. For the same molecule, the remaining activity at 0.1 µM on GSPT1 came to 49%. The remaining activity at 1 µM on GSPT1 came to 5.52%.

`Cc1ccc(CNC(=O)NCc2cc3c(s2)C(=O)N([C@H]2CCCC(=O)NC2=O)C3)cc1Cl` [Compound 39, (S)-1-(3-Chloro-4-methylbenzyl)-3-((5-(2,7-dioxoazepan-3-yl)-6-oxo-5,6-dihydro-4H-thieno[2,3-c]pyrrol-2-yl)methyl)urea]: the cytotoxicity at 10 µM with Molm-13 cells came out at 9%. Besides, the fold induction at 1 µM in the assay on IL-2 is 1.4. Moreover, the viability at 1 µM worked out at 58.3% with H1048 cells and 105% in the assay on MDA-MB-231 cells. Besides, the viability at 10 µM was 19.9% in the assay on H1048 cells and 101% in the assay with MDA-MB-231 cells. In addition, the inhibition at 1 µM in the assay with IL-1β is 24%; in the assay with IL-6 it was 0%; in the assay with TNF-α it was 18%. For the same molecule, the remaining activity at 0.1 µM at GSPT1 was found to be 87.4%. Further, the remaining activity at 1 µM on GSPT1 turned out to be 96%.

As to `Cc1ccc(NC(=O)NCc2cc3c(s2)C(=O)N(C2CCC(=O)NC2=O)C3)cc1Cl` (stereo not drawn) [Compound 40, 1-(3-Chloro-4-methylphenyl)-3-((5-(2,6-dioxopiperidin-3-yl)-6-oxo-5,6-dihydro-4H-thieno[2,3-c]pyrrol-2-yl)methyl)urea], the cytotoxicity at 0.02 µM with Molm-13 cells (compound concentration 0.02 μM) was found to be 50%. Further, in the assay with IL-2, the fold induction at 1 µM is 0.3. In addition, the values for the viability at 1 µM with H1048 cells and in the assay with MDA-MB-231 cells were 12.9% and 57.7%, respectively. For the same molecule, the results for the viability at 10 µM in the assay with H1048 cells and with MDA-MB-231 cells were 13.6% and 50%, respectively. Further, the figures for the inhibition at 1 µM with IL-1β, with IL-6 and in the assay with TNF-α were 37%, 17% and 34%, respectively. Further, the remaining activity at 0.1 µM on GSPT1 turned out to be 46%. Also, the remaining activity at 1 µM on GSPT1 turned out to be 40%.

For `Cc1ccc(NC(=S)NCc2scc3c2CN([C@H]2CCCC(=O)NC2=O)C3=O)cc1Cl` [Compound 41], the cytotoxicity at 0.3 µM in the assay with Molm-13 cells was found to be 50%. For the same molecule, the fold induction at 1 µM in the assay on IL-2 came out at 0.3. The viability at 1 µM in the assay with H1048 cells was found to be 9.42%; in the assay with MDA-MB-231 cells, 58.2%. Further, the results for the viability at 10 µM with H1048 cells and with MDA-MB-231 cells were 9.37% and 30%, respectively. In addition, the figures for the inhibition at 1 µM in the assay on IL-1β, with IL-6 and in the assay on TNF-α were 89%, 95% and 90%, respectively. For the same molecule, the remaining activity at 0.1 µM at GSPT1 was 55.2%. For the same molecule, the remaining activity at 1 µM at GSPT1 came out at 6.4%.
